The target of data set [1] is T1, E. coli nitroreductase (Escherichia coli, UniProt P38489). The class given is biochemical.
In data set [2] the test system is F179 cells. The following applies: read-out: IC50 F179.
The subject of data set [3] is SKOV3 human ovarian carcinoma cells infected with adenovirus expressing E. coli nitroreductase (NR+). In words: Cytotoxicity in SKOV3 cells infected with adenovirus expressing E. coli nitroreductase (NR+), MTT. Format: cell-based. The settings on record: for IC50: adenovirus NR, 100 pfu/cell; for Ratio of IC50 values (NR−/NR+): SKOV3, 18 hour drug exposure.
The test system of data set [4] is SKOV3 human ovarian carcinoma cells not infected (NR−). In words: cells. The class given is cell-based. The following applies: read-out: IC50 in SKOV3 NR−.
The target of data set [5] is T1, E. coli nitroreductase. The following applies: pH 7.
The next data set has as its system hDT7 cells. The data set is described as follows: cells. The class given is cell-based, Chinese hamster. The settings on record: read-out: IC50 hDT7.
Another data set deals with T116 cells. The data set is described as follows: cells. The class given is cell-based, Chinese hamster.
The target of data set [6] is T1, E. coli nitroreductase. The data set is described as follows: in vitro. The following applies: pH 7.
Data set [7] deals with F179 cells. In words: cells. The following applies: Cricetulus griseus, read-out: IC50 F179.
Setting [8] is: 18 hour drug exposure, read-out: IC50 in SKOV3 NR+.
[9] abbreviates: 72 hours drug exposure, human NQO1-expressing cells.
Where [10] appears, read: 72 hours drug exposure, E. coli nitroreductase-expressing cells, read-out: IC50 T116.
Where [11] appears, read: Homo sapiens, SK-OV-3, 18 h, read-out: IC50 in SKOV3 NR+, 18 hour drug exposure.
[12] abbreviates: Cricetulus griseus, V79, 72 h, read-out: IC50 T116.
Where [13] appears, read: 72 hours drug exposure, vector-only control cells.
Where [14] appears, read: 200 μM compound, 1 mM NADH, 1.8 μg E. coli nitroreductase, 10 mM phosphate buffer pH 7.0, 37° C., 250 μL, UV 340 nm.
Where [15] appears, read: 18 hour drug exposure, uninfected cells.
[16] abbreviates: Cricetulus griseus, V79, 1 h, read-out: IC50 T116.

Values joined by “and” are separate entries in the source; they are usually repeats but may differ in a detail not shown here. Identical values can stand only once. Like-named read-outs stand apart in the source and are kept apart here.

T1 sequence (P38489 whole entry): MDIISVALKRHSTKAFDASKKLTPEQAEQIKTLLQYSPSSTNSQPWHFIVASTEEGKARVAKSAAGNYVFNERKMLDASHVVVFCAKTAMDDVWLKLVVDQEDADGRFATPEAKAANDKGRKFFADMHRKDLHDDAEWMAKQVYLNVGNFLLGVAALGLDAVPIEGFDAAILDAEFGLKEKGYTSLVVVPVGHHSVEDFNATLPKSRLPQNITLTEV

`O=[N+]([O-])c1ccc([C@@H]2CCN[P@](=O)(N(CCCl)CCCl)O2)cc1` [trans-13c, 2-[Bis(2-chloroethyl)amino]-6-(p-nitrophenyl)-2H-1,3,2-oxazaphosphorinane 2-oxide]: the “NR Assay vi (initial velocity)” value on E. coli nitroreductase [1] (pH 7) was determined as 3.54 nmol/min. The 50% inhibitory concentration (IC50) in the data set with F179 cells [2] (1 hour drug exposure) was greater than 100 µM; in [3] (setting [8]), 5 µM; in data set [4], greater than 1000 µM; with hDT7 cells (setting [9]), greater than 100 µM; in the data set on T116 cells (1 hour drug exposure, read-out: IC50 T116), 0.166 µM; in the data set on T116 cells (setting [10]) it was 0.027 µM. In addition, the “Ratio of IC50 values (NR−/NR+)” value in data set [3] was greater than 200. Further, the “NR assay t1/2 (half-life of reduction by E. coli nitroreductase)” value on E. coli nitroreductase [5] turned out to be 3.9 min. Also, the entries for the “Ratio of IC50 values (F179/T116)” value with T116 cells and in the data set on T116 cells (1 hour drug exposure) were 22,519 and greater than 602, respectively.
Consider `O=[N+]([O-])c1ccc2c(c1)OP(=O)(N(CCCl)CCCl)NC2` (stereo not shown) [Compound 9b, 7-Nitro-2-[bis(2-chloroethyl)amino]-1,3,2-benzoxazaphosphorinane-2-oxide], for which, at E. coli nitroreductase [6], the half-life amounted to 11 min. Moreover, the half-maximal inhibitory concentration (IC50) in [3] (setting [11]) came out at 410 µM; in data set [4] (Homo sapiens, SK-OV-3, 18 h), 510 µM; in the data set with F179 cells [7] (72 h) it was 61 µM; with hDT7 cells (Cricetulus griseus, V79, 72 h) it was 48 µM; in the data set with T116 cells (setting [12]), 48 µM. The “Ratio of IC50 values (NR−/NR+)” value in data set [3] amounted to 1.2. For the same compound, in the data set with T116 cells, the “Ratio of IC50 values (F179/T116)” value came to 1.3.
Consider `O=[N+]([O-])c1ccc([C@H]2CCN[P@@](=O)(N(CCCl)CCCl)N2)cc1` [trans-13d, 2-[Bis(2-chloroethyl)amino]-4-(p-nitrophenyl)-2H-1,3,2-diazaphosphorinane 2-oxide], for which the half-inhibitory concentration (IC50) with F179 cells [2] (setting [13]) was greater than 100 µM; in the data set on hDT7 cells (setting [9]), greater than 100 µM; in the data set with T116 cells (setting [10]), 48.3 µM. In addition, the “NR assay t1/2 (half-life of reduction by E. coli nitroreductase)” value on E. coli nitroreductase [5] is on record as 4.2 min. Also, the “Ratio of IC50 values (F179/T116)” value in the data set on T116 cells is greater than 2.1.
For the compound `O=[N+]([O-])c1ccc2c(c1)NP(=O)(N(CCCl)CCCl)OC2` (stereo not shown) [Compound 9c, 7-Nitro-2-[bis(2-chloroethyl)amino]-3,1,2-benzoxazaphosphorinane-2-oxide], the half-life on E. coli nitroreductase [6] is 13 min. Besides, the “NR Assay vi (initial velocity)” value on E. coli nitroreductase [1] (setting [14]) amounted to 1.63 nmol/min. Moreover, the half-maximal inhibitory concentration (IC50) in data set [3] (setting [11]) is 55 µM; in [4] (Homo sapiens, SK-OV-3, 18 h), 540 µM; with F179 cells [7] (72 h), greater than 100 µM; in the data set on hDT7 cells (Cricetulus griseus, V79, 72 h) it was greater than 100 µM; with T116 cells (setting [12]), 3 µM. Moreover, the “Ratio of IC50 values (NR−/NR+)” value in [3] amounted to 9.8. For the same compound, in the data set on T116 cells, the “Ratio of IC50 values (F179/T116)” value is listed as greater than 33.
For `O=[N+]([O-])c1ccc2c(c1)NP(=O)(N(CCCl)CCCl)NC2` (stereo not shown) [Compound 9d, 7-Nitro-2-[bis(2-chloroethyl)amino]-1,3,2-benzodiazaphosphorinane-2-oxide], the half-life on E. coli nitroreductase [6] came to 7.8 min. The IC50 in the data set with F179 cells [7] (72 h) is greater than 100 µM; in the data set with hDT7 cells (Cricetulus griseus, V79, 72 h), greater than 100 µM; with T116 cells (setting [12]), greater than 100 µM. Also, the “Ratio of IC50 values (F179/T116)” value in the data set on T116 cells is listed as “˜1”.
`O=[N+]([O-])c1ccc([C@H]2CCO[P@@](=O)(N(CCCl)CCCl)N2)cc1` [trans-13b, 2-[Bis(2-chloroethyl)amino]-4-(p-nitrophenyl)-2H-1,3,2-oxazaphosphorinane 2-oxide]: the half-inhibitory concentration (IC50) in the data set with F179 cells [2] (setting [13]) is greater than 100 µM; in data set [3] (setting [8]), 250 µM; in [4], 820 µM; with hDT7 cells (setting [9]) it was greater than 100 µM; with T116 cells (setting [10]), 51.5 µM. Further, the “Ratio of IC50 values (NR−/NR+)” value in data set [3] is 3.3. The “NR assay t1/2 (half-life of reduction by E. coli nitroreductase)” value on E. coli nitroreductase [5] is 2.9 min. Further, in the data set on T116 cells, the “Ratio of IC50 values (F179/T116)” value was greater than 1.9.
On to `O=[N+]([O-])c1ccc([C@H]2CCO[P@@](=O)(N(CCCl)CCCl)N2)cc1` [cis-13b, 2-[Bis(2-chloroethyl)amino]-4-(p-nitrophenyl)-2H-1,3,2-oxazaphosphorinane 2-oxide], for which the 50% inhibitory concentration (IC50) in the data set with F179 cells [2] is greater than 100 µM; in data set [3] (setting [8]), 510 µM; in data set [4] (setting [15]), greater than 1000 µM; with hDT7 cells, greater than 100 µM; with T116 cells (read-out: IC50 T116), 45.3 µM. Moreover, the “Ratio of IC50 values (NR−/NR+)” value in data set [3] is greater than 2. In addition, the “NR assay t1/2 (half-life of reduction by E. coli nitroreductase)” value on E. coli nitroreductase [5] was determined as 11.9 min. Further, the “Ratio of IC50 values (F179/T116)” value with T116 cells is greater than 2.2.
Turning to `O=[N+]([O-])c1ccc([C@@H]2CCN[P@](=O)(N(CCCl)CCCl)O2)cc1` [cis-13c, 2-[Bis(2-chloroethyl)amino]-6-(p-nitrophenyl)-2H-1,3,2-oxazaphosphorinane 2-oxide], the “NR Assay vi (initial velocity)” value on E. coli nitroreductase [1] (setting [14]) was 2.33 nmol/min. The values for the IC50 (in [3] (setting [8]); in data set [4] (setting [15]); in the data set on hDT7 cells) were 4.5 µM, 680 µM and greater than 100 µM, respectively. For the same compound, the “Ratio of IC50 values (NR−/NR+)” value in data set [3] was determined as 151. Also, the “NR assay t1/2 (half-life of reduction by E. coli nitroreductase)” value at E. coli nitroreductase [5] came to 5.2 min.
As for `NP(=O)(OCc1ccc([N+](=O)[O-])cc1)N(CCCl)CCCl` (stereo not shown) [Compound 15c, 4-nitrobenzyl N,N-bis(2-chloroethyl)phosphordiamidate], at E. coli nitroreductase [1] (setting [14]), the “NR Assay vi (initial velocity)” value worked out at 2.31 nmol/min. Moreover, the concentration for half-maximal inhibition (IC50) in data set [3] (setting [11]) was 1.1 µM; in data set [4] (Homo sapiens, SK-OV-3, 18 h), greater than 1000 µM; with F179 cells [7] (1 h), greater than 100 µM; in the data set with F179 cells [7] (72 h), 62.5 µM; in the data set on hDT7 cells (Cricetulus griseus, V79, 72 h), 27 µM; in the data set with T116 cells (setting [16]), 0.01 µM. In addition, the IC50 in the data set on T116 cells (Cricetulus griseus, V79, 1 h, read-out: IC50 in E. coli nitroreductase-expressing T116 cells) is 0.01 µM; in the data set with T116 cells (setting [12]), 0.003 µM; in the data set on T116 cells (Cricetulus griseus, V79, 72 h, read-out: IC50 in E. coli nitroreductase-expressing T116 cells), 0.003 µM. Further, the “Ratio of IC50 values (NR−/NR+)” value in [3] is recorded as greater than 909. For the same compound, the “Ratio of IC50 values (F179/T116)” value in the data set with T116 cells is 20,833 and >10,000.
For `NC(=O)c1cc(N2CC2)c([N+](=O)[O-])cc1[N+](=O)[O-]` [CB1954, 5-(aziridin-1-yl)-2,4-dinitrobenzamide, reference compound], the half-life on E. coli nitroreductase [6] (E. coli) amounted to 5 min. Moreover, the IC50 in data set [3] (setting [11]) is 4 µM; in [4] (Homo sapiens, SK-OV-3, 18 hour drug exposure, uninfected cells), 600 µM; with F179 cells [7] (1 h), greater than 100 µM; with F179 cells [7] (72 h), 254 µM; in the data set on hDT7 cells (Cricetulus griseus, V79, 72 h), 1.7 µM; with T116 cells (setting [16]), 0.306 µM. For the same compound, the IC50 in the data set with T116 cells (setting [12]) turned out to be 0.036 µM.
In the case of `O=[N+]([O-])c1ccc([C@H]2CCN[P@@](=O)(N(CCCl)CCCl)N2)cc1` [cis-13d, 2-[Bis(2-chloroethyl)amino]-4-(p-nitrophenyl)-2H-1,3,2-diazaphosphorinane 2-oxide], the 50% inhibitory concentration (IC50) with F179 cells [2] was 56.8 µM; in the data set with hDT7 cells it was 46.8 µM; in the data set on T116 cells (read-out: IC50 T116), 4.6 µM. Moreover, the “NR assay t1/2 (half-life of reduction by E. coli nitroreductase)” value at E. coli nitroreductase [5] amounted to 6.4 min. Besides, the “Ratio of IC50 values (F179/T116)” value in the data set with T116 cells came to 12.3.

For orientation: IC50 means the midpoint of a concentration-inhibition curve. As a reminder, the half-life is the time needed for the level to fall by half in the phase considered. Read a low half-life as fast loss.
